Patent publication US12186457B2, “Sphingolipid coatings and process for manufacturing sphingolipid coatings effective for inhibiting biofilm formation” (UNIVERSITY OF CINCINNATI, priority 2015, dated 2025)

Tests used:
Solubility in water = assay type: physicochemical
[1] = inhalation, cited from earlier work
[2] = Quantification of sphingosine on the coated surface by sphingosine kinase assay; assay type: physicochemical; details: sphingosine kinase assay (FIG. 18B)
Protocol: Plastic pieces were extracted in CHCl3/CH3OH/1N HCl (100:100:1, v/v/v), the lower phase was dried and resuspended in a detergent solution (7.5% [w/v] n-octyl glucopyranoside, 5 mM cardiolipin in 1 mM diethylenetriaminepentaacetic acid (DTPA)). The kinase reaction was initiated by addition of 0.004 units sphingosine kinase in 50 mM HEPES (pH 7.4), 250 mM NaCl, 30 mM MgCl2 1 μM ATP and 5 μCi [^32P]γATP. Samples were incubated for 60 min at 37° C. with shaking (350 rpm), then extracted in 20 μl 1N HCl, 800 μl CHCl3/CH3OH/1N HCl (100:200:1, v/v/v), 240 μl CHCl3 and 2 M KCl. The lower phase was collected, dried, dissolved in 20 μL of CHCl3:CH3OH (1:1, v/v) and separated on Silica G60 thin layer chromatography (TLC) plates using CHCl3/CH3OH/acetic acid/H2O (90:90:15:5, v/v/v/v) for SPH. The TLC plates were analyzed using a phosphoimager.
(§1) To determine the total amount of sphingosine present on the surface of the endotracheal tubes after dip coating, we performed mass spectrometry (FIG. 18A) and a sphingosine kinase radioactivity assay (FIG. 18B). Both methods confirmed a concentration of sphingosine in the nmol to μmol range per cm^2. […] Sphingosine was either extracted and analyzed by mass spectrometry (FIG. 18A) or sphingosine kinase assay (FIG. 18B). The amount of sphingosine calculated on the surface after dip coating is (A) 131 nmol/cm^2 and (B) 152.5 nmol/cm^2, respectively.

[3] = Quantification of sphingosine on the coated surface by mass spectrometry; assay type: physicochemical; details: mass spectrometry (FIG. 18A)
Protocol: Coated plastic surfaces were extracted by a one-step lipid extraction. Briefly, a plastic piece was transferred into a siliconized glass tube and adsorbed sphingosine was extracted by addition of 10 mL methanol and sonification on ice for 1 hour. After centrifugation, the lipid extract was diluted with methanol and 50 pmol of C17-sphingosine was added as internal standard. […] Ion funnel parameters were: high pressure RF voltage 110 V and low pressure RF voltage 60 V. Multiple reaction monitoring (MRM) transition 300.3 m/z>282.3 m z at 8 eV collision energy was used for quantification of sphingosine, whereas MRM transition 286.3 m/z>268.3 m/z at 8 eV collision energy was used for quantification of C17-sphingosine. Quantification was performed with Mass Hunter Software (Agilent Technologies).
as §1, with “18B).” for “18B). Both methods confirmed a concentration of sphingosine in the nmol to μmol range per cm^2.”

Compound | solubility in water (Solubility in water) | observable toxicity ([1]; mice) | rates of pneumonia ([1]; susceptible mice) | amount of sphingosine calculated on the surface after dip coating [2] | amount of sphingosine calculated on the surface after dip coating [3]
CCCCCCCCCCCCCC[C@@H](O)[C@@H](O)[C@@H](N)CO [phytosphingosine, D-ribo-phytosphingosine] | nearly completely insoluble in water | – | – | – | –
CCCCCCCCCCCCC/C=C/[C@@H](O)[C@@H](N)CO [sphingosine, D-erythrosphingosine (d18:1)] | nearly completely insoluble in water | did not result in any observable toxicity | reduce rates of pneumonia in susceptible mice | 152.5 nmol/cm^2 | 131 nmol/cm^2
